Source: patent publication US8846713B2, “Fused heterocyclic compounds as phosphodiesterases (PDEs) inhibitors” (Takeda Pharmaceutical Company Limited, priority 2010, dated 2014)

Columns and labels:
Human PDE10A enzyme = target: T1, Human PDE10A enzyme (Homo sapiens, UniProt Q9Y233); assay: PDE enzyme inhibition, SPA (Scintillation Proximity Assay) with [3H]cGMP; format: biochemical; conditions: [3H]cGMP substrate; for inhibition at 1 µM: compound 1 μM, read-out: Percent inhibition (1 μM); for inhibition at 10 µM: compound 10 μM, read-out: Percent inhibition (10 μM)
T1 construct: transfected with the full-length gene; His-tag; made in house; host or cells: Sf9 or COS-7 cells
T1 sequence (Q9Y233 267-1055): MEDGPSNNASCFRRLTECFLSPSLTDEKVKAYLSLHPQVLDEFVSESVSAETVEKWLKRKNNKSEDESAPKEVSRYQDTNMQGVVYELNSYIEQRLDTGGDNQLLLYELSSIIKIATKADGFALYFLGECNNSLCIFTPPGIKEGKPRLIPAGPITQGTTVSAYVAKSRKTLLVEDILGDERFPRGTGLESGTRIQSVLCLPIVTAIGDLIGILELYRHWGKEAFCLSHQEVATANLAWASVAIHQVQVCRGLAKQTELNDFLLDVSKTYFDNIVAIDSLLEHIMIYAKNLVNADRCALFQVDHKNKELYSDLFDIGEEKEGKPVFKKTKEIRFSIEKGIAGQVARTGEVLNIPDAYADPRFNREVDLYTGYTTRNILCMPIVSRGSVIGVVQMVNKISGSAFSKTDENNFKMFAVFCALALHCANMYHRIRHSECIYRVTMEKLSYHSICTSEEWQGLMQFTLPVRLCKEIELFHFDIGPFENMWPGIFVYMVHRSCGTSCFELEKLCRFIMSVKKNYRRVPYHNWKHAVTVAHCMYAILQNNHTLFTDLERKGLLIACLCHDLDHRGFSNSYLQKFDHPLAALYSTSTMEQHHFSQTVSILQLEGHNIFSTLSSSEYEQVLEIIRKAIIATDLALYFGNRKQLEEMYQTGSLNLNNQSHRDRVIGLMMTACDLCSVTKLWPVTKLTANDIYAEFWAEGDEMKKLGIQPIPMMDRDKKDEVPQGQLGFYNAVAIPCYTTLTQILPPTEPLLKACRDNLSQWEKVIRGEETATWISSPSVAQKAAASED
Method: Human PDE10A enzyme was generated from Sf9 or COS-7 cells transfected with the full-length gene. Cloned enzyme was extracted from homogenized cell pellets. The extracted enzyme from sf9 cells was partially purified using His-tag affinity column. The enzyme was stored at −70° C. until use. PDE activity was measured using a SPA (Scintillation Proximity Assay) (GE Healthcare). To evaluate the inhibitory activity, 10 μL of serial diluted compounds were incubated with 20 μL of PDE enzyme in assay buffer (50 mM HEPES-NaOH, 8.3 mM MgCl2, 1.7 mM EGTA, 0.1% BSA (pH 7.4)) for 30 min. at room temperature. Final concentration of DMSO in the assay was 1 percent as compounds were tested in duplicate in 96-well half-area plates (Corning). To start the reaction, 10 μL of substrate [^3H] cGMP (25 or 50 nM; enclosed in SPA kits from GE Healthcare or purchased from PerkinElmer, respectively) was added for a final assay volume of 40 μL. After 60 min incubation at room temperature, yttrium SPA beads containing Zinc sulphate were added (20 μL at 6 mg/mL) to terminate the PDE reaction. After being settled for 60 min, assay plates were counted in a scintillation counter (PerkinElmer) to allow calculation of inhibition rate. Inhibition rate was calculated on the basis of 0% control wells with DMSO and 100% control wells without enzyme.

## Cc1ccnc2c1n(C(C)C)c(=O)n2-c1ccc(Oc2nc3cccnc3n2C)cc1 [Example 121, 7-methyl-1-(1-methylethyl)-3-{4-[(3-methyl-3H-imidazo[4,5-b]pyridin-2-yl)oxy]phenyl}-1,3-dihydro-2H-imidazo[4,5-b]pyridin-2-one]
other
  melting point: 270 to 271 °C
Human PDE10A enzyme
  inhibition at 1 µM: 103%
  inhibition at 10 µM: 99%

## Cc1cnc2c(c1)n(C(C)C)c(=O)n2-c1ccc(Oc2nc3cccnc3n2C)cc1 [Example 122, 6-methyl-1-(1-methylethyl)-3-{4-[(3-methyl-3H-imidazo[4,5-b]pyridin-2-yl)oxy]phenyl}-1,3-dihydro-2H-imidazo[4,5-b]pyridin-2-one]
other
  melting point: 252 °C
Human PDE10A enzyme
  inhibition at 1 µM: 109%
  inhibition at 10 µM: 107%

## CCn1c(=O)n(-c2ccc(Oc3nc4ccccc4n3C)cc2)c2ncncc21 [Example 125, 7-ethyl-9-{4-[(1-methyl-1H-benzimidazol-2-yl)oxy]phenyl}-7,9-dihydro-8H-purin-8-one]
other
  melting point: 242 to 243 °C
Human PDE10A enzyme
  inhibition at 1 µM: 99%
  inhibition at 10 µM: 101%

## CCn1c(=O)n(-c2ccc(Oc3nc4cccnc4n3C)cc2)c2ncc(OC(F)F)cc21 [Example 127, 6-(difluoromethoxy)-1-ethyl-3-{4-[(3-methyl-3H-imidazo[4,5-b]pyridin-2-yl)oxy]phenyl}-1,3-dihydro-2H-imidazo[4,5-b]pyridin-2-one]
other
  melting point: 195 to 197 °C
Human PDE10A enzyme
  inhibition at 1 µM: 101%
  inhibition at 10 µM: 101%

## CCn1c(=O)n(-c2ccc(Oc3nc4cccnc4n3C)cc2)c2ncc(OCC(F)F)cc21 [Example 128, 6-(2,2-difluoroethoxy)-1-ethyl-3-{4-[(3-methyl-3H-imidazo[4,5-b]pyridin-2-yl)oxy]phenyl}-1,3-dihydro-2H-imidazo[4,5-b]pyridin-2-one]
other
  melting point: 171 to 172 °C
Human PDE10A enzyme
  inhibition at 1 µM: 94%
  inhibition at 10 µM: 91%

## CCn1c(=O)n(-c2ccc(Oc3nc4cccnc4n3C)cc2)c2ncc(OCC(F)(F)F)cc21 [Example 129, 1-ethyl-3-{4-[(3-methyl-3H-imidazo[4,5-b]pyridin-2-yl)oxy]phenyl}-6-(2,2,2-trifluoroethoxy)-1,3-dihydro-2H-imidazo[4,5-b]pyridin-2-one]
other
  melting point: 178 to 179 °C
Human PDE10A enzyme
  inhibition at 1 µM: 89%
  inhibition at 10 µM: 96%

## CCn1c(=O)n(-c2ccc(Oc3nc4cccnc4n3C)cc2)c2nccc(C(F)(F)F)c21 [Example 130, 1-ethyl-3-{4-[(3-methyl-3H-imidazo[4,5-b]pyridin-2-yl)oxy]phenyl}-7-(trifluoromethyl)-1,3-dihydro-2H-imidazo[4,5-b]pyridin-2-one]
other
  melting point: 244 to 246 °C
Human PDE10A enzyme
  inhibition at 1 µM: 95%
  inhibition at 10 µM: 98%

## CCn1c(=O)n(-c2ccc(N3CCn4c3nc3cccnc34)cc2)c2ncccc21 [Example 134, 3-[4-(2,3-dihydro-1H-imidazo[2′,1′:2,3]imidazo[4,5-b]pyridin-1-yl)phenyl]-1-ethyl-1,3-dihydro-2H-imidazo[4,5-b]pyridin-2-one]
other
  melting point: 255 to 256 °C
Human PDE10A enzyme
  inhibition at 1 µM: 101%
  inhibition at 10 µM: 104%
